Reference: the supplement of paper PMC6335503

Columns and labels:
Assay in all cases: cell viability, percent of DMSO control (CellTiter-Glo); higher = more viable cells
Details in all cases: 72 h
[1] = tested on: DFTD cell line T1 (06/2887)
Protocol: (§1)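 Eight-point dose titration of 41 screen hits in triplicate wells on four Tasmanian devil DFTD tumour cell lines (T1-T4) and devil fibroblasts, 384-well plates. Viability was read by CellTiter-Glo (ATP) after 72 h at 37 °C. Percent of control per plate: DMSO wells = 100%, positive-control wells = 0%.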

[2] = tested on: DFTD cell line T2 (05/2569)
Protocol: as §1

[3] = tested on: DFTD cell line T3 (06/0368)
Protocol: as §1

[4] = tested on: DFTD cell line T4 (07/0192)
Protocol: as §1

COc1cc2ncnc(Nc3ccc(O)c(Br)c3)c2cc1OC [WHI-P154]
cell viability [%]
Details | 0.00617 µM | 0.0185 µM | 0.0556 µM | 0.166667 µM | 0.5 µM | 1.5 µM | 4.5 µM | 13.5 µM
[1] | 90.9 | 125 | 103 | 86 | 46.2 | 36.9 | 25 | 21.8
[2] | 85 | 116 | 105 | 95.7 | 58.1 | 45.3 | 32.1 | 20.6
[3] | 76.9 | 125 | 98.1 | 92 | 67.7 | 55.6 | 40.4 | 32.8
[4] | 85.6 | 134 | 115 | 84.5 | 69 | 42.4 | 30.6 | 19.7

CC(C)(C)P(=NC(=S)NCCCO)(N1CCCCCC1)N1CCCCCC1 [T0503-0280]
cell viability [%]
Details | 0.00617 µM | 0.0185 µM | 0.0556 µM | 0.166667 µM | 0.5 µM | 1.5 µM | 4.5 µM | 13.5 µM
[1] | 94.1 | 106 | 125 | 116 | 96.1 | 50.7 | 24.5 | 19.9
[2] | 107 | 87.6 | 127 | 115 | 92.6 | 68.7 | 14.8 | 27.7
[3] | 106 | 83.3 | 134 | 118 | 99.4 | 66 | 17.6 | 16.1
[4] | 118 | 85.2 | 129 | 105 | 112 | 38.2 | 11.4 | 30.9

CCS(=O)(=O)c1cccc(-c2cc(C(=O)NC3CCN(C)CC3)c(C)c3[nH]c4ncc(C)cc4c23)c1 [TAK901]
cell viability [%]
Details | 0.00617 µM | 0.0185 µM | 0.0556 µM | 0.166667 µM | 0.5 µM | 1.5 µM | 4.5 µM | 13.5 µM
[1] | 104 | 109 | 113 | 121 | 138 | 59.4 | 12 | -4.29
[2] | 125 | 103 | 127 | 111 | 126 | 42.4 | 1.18 | -1.98
[3] | 106 | 105 | 95.9 | 98.5 | 104 | 42.6 | 4.34 | -3.65
[4] | 99.7 | 109 | 103 | 104 | 96.7 | 26.5 | -1.88 | -6.14

COc1cccc2c1C(=O)c1c(O)c3c(c(O)c1C2=O)C[C@@](O)(C(=O)CO)C[C@@H]3O[C@H]1C[C@H](N)[C@H](O)[C@H](C)O1.Cl
cell viability [%]
Details | 0.00617 µM | 0.0185 µM | 0.0556 µM | 0.166667 µM | 0.5 µM | 1.5 µM | 4.5 µM | 13.5 µM
[1] | 106 | 112 | 94.2 | 95.5 | 61.2 | 32.2 | 1.1 | -3.65
[2] | 118 | 107 | 90.9 | 97.9 | 60.3 | 33.7 | -0.292 | -2.07
[3] | 101 | 102 | 97.9 | 95.8 | 60.3 | 45 | 1.01 | 2.64
[4] | 110 | 98 | 89.9 | 91.9 | 43.8 | 24.2 | -1.02 | 1.84

COc1cc2ncnc(Nc3ccc(Cl)cc3F)c2cc1OC
cell viability [%]
Details | 0.00617 µM | 0.0185 µM | 0.0556 µM | 0.166667 µM | 0.5 µM | 1.5 µM | 4.5 µM | 13.5 µM
[1] | 98.4 | 95.7 | 124 | 110 | 83.1 | 44.3 | 26.7 | 36.9
[2] | 105 | 86.8 | 112 | 116 | 85.2 | 59.5 | 27.6 | 28.3
[3] | 120 | 89.3 | 119 | 97.1 | 85.5 | 66.1 | 43.7 | 47.2
[4] | 116 | 99.5 | 119 | 97 | 93.8 | 75.3 | 45 | 35.2

CCN1CCN(Cc2ccc(-c3cc4c(N[C@H](C)c5ccccc5)ncnc4[nH]3)cc2)CC1 [AEE788]
cell viability [%]
Details | 0.00617 µM | 0.0185 µM | 0.0556 µM | 0.166667 µM | 0.5 µM | 1.5 µM | 4.5 µM | 13.5 µM
[1] | 77.9 | 87.5 | 119 | 61.2 | 35.4 | 23.9 | 29.4 | 17.5
[2] | 77.9 | 96 | 123 | 85.2 | 46.3 | 25.8 | 21 | 6.37
[3] | 93.5 | 110 | 123 | 77.2 | 49.8 | 34.2 | 36.4 | 28.6
[4] | 99.1 | 90 | 104 | 83.8 | 43.4 | 25.1 | 24.8 | 23.4

COc1cc2ncnc(Nc3cccc(Br)c3)c2cc1OC.Cl
cell viability [%]
Details | 0.00617 µM | 0.0185 µM | 0.0556 µM | 0.166667 µM | 0.5 µM | 1.5 µM | 4.5 µM | 13.5 µM
[1] | 126 | 99 | 112 | 111 | 63 | 24.8 | 22.8 | 12.4
[2] | 115 | 106 | 106 | 107 | 77 | 40.7 | 32.9 | 21.2
[3] | 127 | 90.2 | 118 | 108 | 89.1 | 49 | 39.8 | 30.8
[4] | 126 | 94 | 105 | 104 | 91 | 48.8 | 28.6 | 17.7

COc1cccc2c1C(=O)c1c(O)c3c(c(O)c1C2=O)C[C@@](O)(C(=O)CO)C[C@@H]3O[C@H]1C[C@H](N)[C@@H](O)[C@H](C)O1.Cl
cell viability [%]
Details | 0.00617 µM | 0.0185 µM | 0.0556 µM | 0.166667 µM | 0.5 µM | 1.5 µM | 4.5 µM | 13.5 µM
[1] | 127 | 96.8 | 94.5 | 66.7 | 60.6 | -2.32 | -3.85 | -11.8
[2] | 116 | 105 | 107 | 79.4 | 68.9 | 22.8 | -4.77 | -10.2
[3] | 124 | 110 | 96.2 | 81.9 | 63.8 | 19.3 | 5.78 | -4.2
[4] | 118 | 97.7 | 89.8 | 67.5 | 57.2 | -4.01 | -5.27 | -4.94

COc1cccc2c1C(=O)c1c(O)c3c(c(O)c1C2=O)C[C@@](O)(C(=O)CO)C[C@@H]3O[C@H]1C[C@H](N)[C@H](O)[C@H](C)O1 [Doxorubicin]
cell viability [%]
Details | 0.00617 µM | 0.0185 µM | 0.0556 µM | 0.166667 µM | 0.5 µM | 1.5 µM | 4.5 µM | 13.5 µM
[1] | 109 | 105 | 104 | 85.8 | 61.2 | 2.77 | -6.73 | -3.65
[2] | 108 | 98.7 | 96.5 | 88.7 | 64.5 | 13.4 | -8.33 | -4.69
[3] | 112 | 96.6 | 98.6 | 77 | 66.5 | 21.6 | -3.26 | 4.78
[4] | 104 | 106 | 96.8 | 84.9 | 53.4 | 2.44 | -5.87 | -5.47

COc1cc2c(cc1-c1c(C)noc1C)ncc1[nH]c(=O)n([C@H](C)c3ccccn3)c12 [I-BET151]
cell viability [%]
Details | 0.0309 µM | 0.0926 µM | 0.277778 µM | 0.833333 µM | 2.5 µM | 7.5 µM | 22.5 µM | 67.5 µM
[1] | 119 | 126 | 92.8 | 31.3 | 28.6 | 16.7 | 23 | 37.9
[2] | 95.3 | 120 | 141 | 81.4 | 50.3 | 21.1 | 22.3 | 32.5
[3] | 102 | 106 | 117 | 64.5 | 47.6 | 35.1 | 36.6 | 45.2
[4] | 87.7 | 107 | 87.5 | 47.8 | 49.6 | 38.9 | 42.9 | 53

Nc1ccc(F)cc1NC(=O)c1ccc(CNC(=O)/C=C/c2cccnc2)cc1 [Chidamide]
cell viability [%]
Details | 0.0309 µM | 0.0926 µM | 0.277778 µM | 0.833333 µM | 2.5 µM | 7.5 µM | 22.5 µM | 67.5 µM
[1] | 111 | 97.4 | 38.5 | 28.7 | 9.38 | -0.502 | 13.2 | 18.1
[2] | 102 | 79.7 | 69.8 | 29.6 | 11.9 | 9.75 | 7.82 | 9.23
[3] | 102 | 78.9 | 56.3 | 39 | 18.9 | 18.2 | 14.3 | 11.1
[4] | 112 | 101 | 83 | 48.5 | 22.2 | 19.1 | 15.3 | 20.2
